# Results from the Kinase Knowledgebase extract (Sharma et al. 2016).
# Target: MAPK14 (UniProt Q16539)
# Test: Inhibition of MAPK14 Kinase Activity
# MAPK14, sequence (Q16539 whole entry, looked up): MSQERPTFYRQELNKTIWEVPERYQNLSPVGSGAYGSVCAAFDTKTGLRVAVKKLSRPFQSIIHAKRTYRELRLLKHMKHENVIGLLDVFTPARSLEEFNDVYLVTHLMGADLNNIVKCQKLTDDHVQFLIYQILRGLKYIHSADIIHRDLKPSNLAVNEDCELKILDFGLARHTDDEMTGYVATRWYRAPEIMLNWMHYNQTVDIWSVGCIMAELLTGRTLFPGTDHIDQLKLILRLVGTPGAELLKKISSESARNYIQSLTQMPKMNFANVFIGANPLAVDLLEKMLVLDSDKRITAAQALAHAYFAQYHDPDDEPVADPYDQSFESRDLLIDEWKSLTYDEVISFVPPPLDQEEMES
row,SMILES,IC50
1,CN1CCN(Cc2ccc(C(=O)N3CCC(Oc4cc(F)cc(NC(=O)Nc5cc(C(C)(C)C)nn5C)c4)CC3)cc2)CC1,< 5 µM
2,Cn1nc(C(C)(C)C)cc1NC(=O)Nc1cc(F)cc(OC2CCN(C(=O)C(Cl)(Cl)Cl)CC2)c1,< 5 µM
3,Cn1nc(C(C)(C)C)cc1NC(=O)Nc1ccc(CN2CCN(C(=O)c3ccc(C(F)(F)F)cc3)CC2)cc1,< 5 µM
4,Cn1nc(C(C)(C)C)cc1NC(=O)Nc1cc(F)cc(OC2CCN(C(=O)C3CC3)CC2)c1,< 5 µM
5,Cc1ccc(-n2nc(C(C)(C)C)cc2NC(=O)Nc2ccc(N3CCN(C(=O)C4(C)CC4)CC3)cc2)cc1,< 5 µM
6,Cn1nc(C(C)(C)C)cc1NC(=O)Nc1ccc(OC2CCN(C(=O)c3c(Cl)cccc3Cl)CC2)cc1,< 5 µM
7,Cn1nc(C(C)(C)C)cc1NC(=O)Nc1cc(F)cc(OC2CCN(C(=O)c3cccc4[nH]ccc34)CC2)c1,< 5 µM
8,Cc1ccc(-n2nc(C(C)(C)C)cc2NC(=O)Nc2ccc(OC3CCN(C(=O)C4CC4)CC3)cc2)cc1,< 5 µM
9,Cn1nc(C(C)(C)C)cc1NC(=O)Nc1cc(F)cc(OC2CCN(C(=O)c3ccccc3)CC2)c1,< 5 µM
10,Cc1ccc(-n2nc(C(C)(C)C)cc2NC(=O)Nc2ccc(N3CCN(C(=O)C4CC4C)CC3)cc2)cc1 (stereo not drawn),< 5 µM
11,Cc1ccc(-n2nc(C(C)(C)C)cc2NC(=O)Nc2ccc(N3CCN(C(=O)C4CC4)CC3)cc2)cc1,< 5 µM
12,Cn1nc(C(C)(C)C)cc1NC(=O)Nc1ccc(OC2CCN(C(=O)c3ccc(Cl)nc3)CC2)cc1,< 5 µM
13,Cn1nc(C(C)(C)C)cc1NC(=O)Nc1cc(F)cc(OC2CCN(C(=O)c3c[nH]c4ccccc34)CC2)c1,< 5 µM
14,COc1ncccc1C(=O)N1CCC(Oc2ccc(NC(=O)Nc3cc(C(C)(C)C)nn3C)cc2)CC1,< 5 µM
15,Cn1nc(C(C)(C)C)cc1NC(=O)Nc1cc(F)cc(OC2CCN(C(=O)c3sccc3Cl)CC2)c1,< 5 µM
16,CCn1nc(C(C)(C)C)cc1NC(=O)Nc1ccc(CN2CCN(C(=O)c3ccc(F)cc3F)CC2)cc1F,< 5 µM
17,Cn1nc(C(C)(C)C)cc1NC(=O)Nc1ccc(OC2CCN(C(=O)OC(C)(C)C)CC2)cc1,< 5 µM
18,COc1cccc(F)c1C(=O)N1CCC(Oc2cccc(NC(=O)Nc3cc(C(C)(C)C)nn3C)c2)CC1,< 5 µM
19,Cn1nc(C(C)(C)C)cc1NC(=O)Nc1cccc(OC2CCN(C(=O)c3ccccc3OC(F)(F)F)CC2)c1,< 5 µM
20,Cn1nc(C(C)(C)C)cc1NC(=O)Nc1ccc(CN2CCN(C(=O)c3ccc(Cl)cc3Cl)CC2)cc1,< 5 µM
21,Cc1ccc(-n2nc(C(C)(C)C)cc2NC(=O)Nc2ccc(OC3CCN(C(=O)c4c(Cl)cccc4Cl)CC3)cc2)cc1,< 5 µM

row,SMILES,IC50
1,Cn1nc(C(C)(C)C)cc1NC(=O)Nc1cccc(OC2CCN(C(=O)c3cc[nH]c3)CC2)c1,< 5 µM
2,Cc1ccsc1C(=O)N1CCC(Oc2cccc(NC(=O)Nc3cc(C(C)(C)C)nn3C)c2)CC1,< 5 µM
3,Cc1nn(C)c(C)c1C(=O)N1CCC(Oc2ccc(NC(=O)Nc3cn(C)nc3C(C)(C)C)cc2)CC1,< 5 µM
4,Cn1nc(C(C)(C)C)cc1NC(=O)Nc1ccc(OC2CCN(C(=O)c3ccccc3C(F)(F)F)CC2)cc1,< 5 µM
5,Cc1ccc(-n2nc(C(C)(C)C)cc2NC(=O)Nc2ccc(N3CCN(C(=O)C(C)C)CC3)cc2)cc1,< 5 µM
6,Cn1nc(C(C)(C)C)cc1NC(=O)Nc1cc(F)cc(OC2CCN(C(=O)C3(C)CC3)CC2)c1,< 5 µM
7,CCn1nc(C(C)(C)C)cc1NC(=O)Nc1ccc(CN2CCN(C(=O)c3c(F)cccc3F)CC2)cc1F,< 5 µM
8,Cn1nc(C(C)(C)C)cc1NC(=O)Nc1ccc(CN2CCN(C(=O)c3c(F)cccc3F)CC2)c(F)c1,< 5 µM
9,CC(C)(C)c1cc(NC(=O)Nc2ccc(OC3CCN(C(=O)c4c(F)cccc4F)CC3)cc2)[nH]n1,< 5 µM
10,Cn1nc(C(C)(C)C)cc1NC(=O)Nc1cc(F)cc(OC2CCN(C(=O)c3cc[nH]c3)CC2)c1,< 5 µM
11,Cc1ccc(-n2nc(C(C)(C)C)cc2NC(=O)Nc2ccc(CN3CCN(C(=O)c4c(F)cccc4F)CC3)cc2)cc1,< 5 µM
12,Cn1nc(C(C)(C)C)cc1NC(=O)Nc1cccc(OC2CCN(C(=O)c3ccc(F)cc3F)CC2)c1,< 5 µM
13,Cn1nc(C(C)(C)C)cc1NC(=O)Nc1ccc(OC2CCN(C(=O)c3sccc3Cl)CC2)cc1,< 5 µM
14,Cn1nc(C(C)(C)C)cc1NC(=O)Nc1ccc(CN2CCN(C(=O)c3c(F)cccc3F)CC2)cc1F,< 5 µM
15,Cn1nc(C(C)(C)C)cc1NC(=O)Nc1ccc(OC2CCN(C(=O)c3c(F)cccc3Cl)CC2)cc1,< 5 µM
16,CC(C)C(=O)N1CCC(Oc2ccc(NC(=O)Nc3cc(C(C)(C)C)nn3C)cc2)CC1,< 5 µM
17,CC(C)(C)c1cc(NC(=O)Nc2ccc(OC3CCN(C(=O)c4c(Cl)cccc4Cl)CC3)cc2)[nH]n1,< 5 µM
18,Cc1ccc(-n2nc(C(C)(C)C)cc2NC(=O)Nc2ccc(N3CCN(C(N)=O)CC3)cc2)cc1,< 5 µM
19,Cc1ccc(-n2nc(C(C)(C)C)cc2NC(=O)Nc2ccc(OC3CCN(C(=O)c4c(Cl)cccc4Cl)CC3)c3ccccc23)cc1,< 5 µM
20,Cc1ccc(-n2nc(C(C)(C)C)cc2NC(=O)Nc2ccc(N3CCN(C(=O)c4c(Cl)cccc4Cl)CC3)cc2)cc1,< 5 µM
21,CC(C)(C)c1cc(NC(=O)Nc2ccc(CN3CCN(C(=O)c4c(F)cccc4F)CC3)c(F)c2)n(C(C)(C)C)n1,< 5 µM

row,SMILES,IC50
1,Cc1ccc(-n2nc(C(C)(C)C)cc2NC(=O)NC2CCN(C(=O)c3ccc(S(C)(=O)=O)cc3)CC2)cc1,< 5 µM
2,COc1ccc(C(=O)N2CCC(Oc3ccc(NC(=O)Nc4cc(C(C)(C)C)nn4C)cc3)CC2)cn1,< 5 µM
3,Cc1ccsc1C(=O)N1CCC(Oc2ccc(NC(=O)Nc3cc(C(C)(C)C)nn3C)cc2)CC1,< 5 µM
4,Cc1ccc(-n2nc(C(C)(C)C)cc2NC(=O)Nc2cc(F)cc(OC3CCN(C(=O)C4CC4)CC3)c2)cc1,< 5 µM
5,Cn1nc(C(C)(C)C)cc1NC(=O)Nc1ccc(CN2CCN(C(=O)c3ccc(F)cc3)CC2)cc1,< 5 µM
6,Cn1nc(C(C)(C)C)cc1NC(=O)Nc1cccc(OC2CCN(C(=O)c3ccc(Br)s3)CC2)c1,< 5 µM
7,Cn1nc(C(C)(C)C)cc1NC(=O)Nc1cccc(OC2CCN(C(=O)c3c(Cl)cncc3Cl)CC2)c1,< 5 µM
8,Cc1ccc(-n2nc(C(C)(C)C)cc2NC(=O)Nc2ccc(N3CCN(C(=O)C4CCOC4)CC3)cc2)cc1 (stereo not drawn),< 5 µM
9,Cc1ccc(-n2nc(C(C)(C)C)cc2NC(=O)Nc2ccc(OCCC3CCN(C(=O)c4c(Cl)cccc4Cl)CC3)c3ccccc23)cc1,< 5 µM
10,Cn1nc(C(C)(C)C)cc1NC(=O)Nc1cc(F)cc(OC2CCN(C(=O)C3(C)CC3(Cl)Cl)CC2)c1 (stereo not drawn),< 5 µM
11,Cn1nc(C(C)(C)C)cc1NC(=O)Nc1ccc(CN2CCN(C(=O)c3ccc(F)cc3F)CC2)cc1F,< 5 µM
12,Cn1nc(C(C)(C)C)cc1NC(=O)Nc1ccc(OC2CCN(S(C)(=O)=O)CC2)cc1,< 5 µM
13,Cn1nc(C(C)(C)C)cc1NC(=O)Nc1ccc(C(=O)N2CCN(Cc3ccncc3)CC2)cc1,< 5 µM
14,Cn1nc(C(C)(C)C)cc1NC(=O)Nc1ccc(OC2CCN(C(=O)c3ccsc3)CC2)cc1,< 5 µM
15,Cn1nc(C(C)(C)C)cc1NC(=O)Nc1ccc(CN2CCN(C(=O)c3ccncc3)CC2)cc1,< 5 µM
16,Cc1ccc(-n2nc(C(C)(C)C)cc2NC(=O)Nc2ccc(OCC3CCN(C(=O)c4c(Cl)cccc4Cl)CC3)c3ccccc23)cc1,< 5 µM
17,Cn1nc(C(C)(C)C)cc1NC(=O)Nc1ccc(OC2CCN(C(=O)c3ccccc3Cl)CC2)cc1,< 5 µM
18,Cn1nc(C(C)(C)C)cc1NC(=O)Nc1cc(F)cc(OC2CCN(C(=O)c3ccccc3F)CC2)c1,< 5 µM
19,CC(C)n1nc(C(C)(C)C)cc1NC(=O)Nc1ccc(CN2CCN(C(=O)c3c(Cl)cccc3Cl)CC2)cc1,< 5 µM
20,Cn1nc(C(C)(C)C)cc1NC(=O)Nc1cccc(OC2CCN(C(=O)c3sccc3Cl)CC2)c1,< 5 µM
21,Cn1nc(C(C)(C)C)cc1NC(=O)Nc1cc(F)cc(OC2CCN(C(N)=O)CC2)c1,< 5 µM

row,SMILES,IC50
1,Cc1ccc(-n2nc(C(C)(C)C)cc2NC(=O)Nc2cc(F)cc(OC3CCN(C(=O)c4sccc4C)CC3)c2)cc1,< 5 µM
2,Cn1nc(C(C)(C)C)cc1NC(=O)Nc1ccc(OC2CCN(C(=O)c3cn[nH]c3)CC2)cc1,< 5 µM
3,CC(C)n1nc(C(C)(C)C)cc1NC(=O)Nc1ccc(CN2CCN(C(=O)c3c(Cl)cccc3Cl)CC2)cc1F,< 5 µM
4,Cn1nc(C(C)(C)C)cc1NC(=O)Nc1ccc(CN2CCN(C(=O)c3c(Cl)cccc3Cl)CC2)cc1,< 5 µM
5,Cn1nc(C(C)(C)C)cc1NC(=O)Nc1ccc(CN2CCN(C(=O)c3c(F)cccc3Cl)CC2)cc1,< 5 µM
6,Cn1nc(C(C)(C)C)cc1NC(=O)Nc1ccc(CN2CCN(C(=O)c3ccccc3Cl)CC2)cc1,< 5 µM
7,Cc1cc(C(=O)N2CCC(Oc3cccc(NC(=O)Nc4cc(C(C)(C)C)nn4C)c3)CC2)c(C)[nH]1,< 5 µM
8,Cn1nc(C(C)(C)C)cc1NC(=O)Nc1ccc(OC2CCN(C(=O)c3ccc(Cl)s3)CC2)cc1,< 5 µM
9,Cc1ccc(-n2nc(C(C)(C)C)cc2NC(=O)Nc2ccc(N3CCN(C(=O)C4CCCNC4)CC3)cc2)cc1 (stereo not drawn),< 5 µM
10,CN(C)CCOc1ccc(C(=O)N2CCC(Oc3cc(F)cc(NC(=O)Nc4cc(C(C)(C)C)nn4C)c3)CC2)cc1,< 5 µM
11,CC(=O)N1CCN(Cc2ccc(NC(=O)Nc3cc(C(C)(C)C)nn3-c3ccc(C)cc3)cc2)CC1,< 5 µM
12,Cn1nc(C(C)(C)C)cc1NC(=O)Nc1ccc(CN2CCN(C(=O)c3ccc(F)cc3Cl)CC2)cc1,< 5 µM
13,Cn1nc(C(C)(C)C)cc1NC(=O)Nc1cc(F)cc(OC2CCN(C(=O)C(C)(C)C)CC2)c1,0.019 µM
14,Cn1nc(C(C)(C)C)cc1NC(=O)Nc1ccc(OC2CCN(C(=O)C3CCCC3)CC2)cc1,< 5 µM
15,Cn1nc(C(C)(C)C)cc1NC(=O)Nc1cccc(C2CCN(C(=O)c3c(Cl)cccc3Cl)CC2)c1,< 5 µM
16,Cn1nc(C(C)(C)C)cc1NC(=O)Nc1cccc(OC2CCN(C(=O)c3c(Cl)cccc3Cl)CC2)c1,< 5 µM
17,Cn1nc(C(C)(C)C)cc1NC(=O)Nc1cc(F)cc(OC2CCN(C(=O)c3c(F)cccc3Cl)CC2)c1,< 5 µM
18,Cn1nc(C(C)(C)C)cc1NC(=O)Nc1cc(F)cc(OC2CCN(C(=O)c3c(Cl)cncc3Cl)CC2)c1,< 5 µM
19,Cn1nc(C(C)(C)C)cc1NC(=O)Nc1ccc(N2CCN(C(=O)c3c(F)cccc3F)CC2)cc1,< 5 µM
20,Cn1nc(C(C)(C)C)cc1NC(=O)Nc1cc(F)cc(OC2CCN(C(=O)c3ccccc3OC(F)(F)F)CC2)c1,< 5 µM
